The results in this text go back to patent US20150175666A1, “PEPTIDES DERIVED FROM HIV GP41 FOR TREATING T-CELL MEDIATED PATHOLOGIES” (Yeda Research and Development Co. Ltd., priority 2012, published 2015).

Data set [1] relates to T cells (Jurkat T cells, MOG35-55-specific T cells). As to the kind of experiment: XTT cytotoxicity assay. It is filed as cell-based, human and murine. As to conditions: up to maximal concentration examined (20 μM, FIG. 3G). On the procedure:
Aliquots of 2.5×10^4 of the cells (from Jurkat E6-1, T-cell line) were distributed onto a 96-well plate (Falcon) in the presence of various peptide concentrations and incubated for 24 h. Wells in the last two columns served as blank (medium only), and 100% survival controls (cells and medium only), respectively. After incubation, the XTT reaction solution benzene sulfonic acid hydrate and N-methyl dibenzopyrazine methyl sulfate, mixed in a proportion of 50:1, was added for 2 more hr. Optical density was read at a 450-nm wavelength in an enzyme-linked immunoabsorbent assay plate reader. LC50 (the concentration at which 50% of the cells die) was determined relative to the control, 2.5×10^4 cells in medium. All assays were performed in duplicate.
The viability of the cells was analyzed by an XTT cytotoxicity assay. The peptide was not toxic to T cells up to 20-fold more than the IC50 of the peptide, the maximal concentration examined (FIG. 3G).
For orientation: Formazan colour is commonly taken as a measure of viable cells.

The test system of data set [2] is human red blood cells (RBCs). As to the kind of experiment: Hemolysis of human red blood cells. Type of data set: cell-based. Conditions: up to 100-fold IC50, maximal concentration examined (100 μM, 1 hr). On the procedure:
Fresh human red blood cells (RBCs) were rinsed two times with PBS, followed by centrifugation for 7 min at 2000 rpm and resuspension in PBS. Peptides, at various concentrations, were dissolved in PBS and added to 50 μl of the stock hemolysis of human red blood cell (hRBC) solution in PBS for a final volume of 100 μl (final erythrocyte concentration, 4% (v/v)). The resulting suspension was incubated with agitation for 60 min at 37° C. The samples were then centrifuged at 2000 rpm for 7 min. The release of hemoglobin was monitored by measuring the absorbance of the supernatant at 540 nm. Controls for zero hemolysis (blank) and 100% hemolysis consisted of hRBCs suspended in PBS and PBS with 1% Triton, respectively.
Hemolysis of red blood cells (RBCs) is often used to detect membranolytic activity of peptides. Hemolytic activity was measured by the release of hemoglobin into the media (OD 540 nm). Triton (1% v/v) served as a control for a hemolytic agent. Importantly, the peptide was not hemolytic up to 100-fold more than the IC50 of the peptide, the maximal concentration examined (FIG. 3H).

Data set [3] can be described thus: In vivo toxicity in naïve mice. Also on record: species or system C57BL mice. As to conditions: 50 mg/kg i.v., n=3. On the procedure:
First, the toxicity of the peptide was investigated by injecting naïve C57BL mice i.v. with 50 mg/kg of the peptides. […] Then, C57Bl/6J mice that were induced to develop clinical EAE by immunization with MOG35-55/CFA were given a dose of the peptide that was 100-fold less than the one examined in the toxicity assay, i.e. 10 μg per mouse (0.5 mg/kg), or PBS as a control. On day 10 post immunization, prior to the onset of clinical signs of EAE, the lymph node cells (LNCs) from each treatment group were cultured for 72 h in microtiter wells in triplicate (0.5×10^6/well) in the absence or presence of MOG35-55 (2.5 or 5 μg/ml; SEQ ID NO: 15). [H3] Thymidine was added for the last 18 h. The LNCs were analyzed ex vivo for their recall proliferative response to the immunizing MOG35-55 peptide and for secretion of pro-inflammatory cytokines.

As for `CC[C@H](C)[C@H](NC(=O)[C@H](CCC(N)=O)NC(=O)[C@H](CCC(=O)O)NC(=O)[C@H](CC(C)C)NC(=O)[C@H](CO)NC(=O)[C@H](CCCCN)NC(=O)[C@H](CC(N)=O)NC(=O)[C@@H](N)CO)C(=O)N[C@@H](Cc1c[nH]c2ccccc12)C(=O)N[C@@H](CC(N)=O)C(=O)N[C@@H](Cc1c[nH]cn1)C(=O)N[C@H](C(=O)N[C@H](C(=O)N[C@@H](Cc1c[nH]c2ccccc12)C(=O)N[C@@H](CCSC)C(=O)N[C@@H](CCC(=O)O)C(=O)N[C@@H](Cc1c[nH]c2ccccc12)C(=O)N[C@@H](CC(=O)O)C(N)=O)[C@@H](C)O)[C@@H](C)O` [PEP 6, SNKSLEQIWNHTTWMEWD], the “toxicity to T cells (viability)” value in data set [1] was “not toxic”. Moreover, the hemolytic activity result in data set [2] is “not hemolytic”. Besides, in data set [3], the “toxic effect in mice” value is “No toxic effect”.
